Patent US20240309014A1, “MACROCYCLIC COMPOUNDS AND USES THEREOF” (President and Fellows of Harvard College, priority 2017, published 2024)

Columns and labels:
[1] = system: microtubule dynamics in U2OS-EB3-AG osteosarcoma cell line; test: Cell-based microtubule dynamics assay; conditions: 0.5 nM, around 60 minutes after addition
Experimental: A cell-based microtubule (MT) dynamics assay was conducted with the U2OS-EB3-AG osteosarcoma cell line, in which the fusion protein of EB3 (a microtubule plus end binding protein) and Azami-Green (EB3-AG) was stably expressed. U2OS-EB3-AG cells were culture in RPMI-1640 medium containing 10% FBS, and penicillin-streptomycin, at 37° C. in a humidified 5% C02 atmosphere. The MT dynamics in the live cells can be visualized as the movement of the comet-like structure of EB3-AG. U2OS-EB3-AG cells plated on glass-base culture plates (EZVIEW plate, AGC Techno Glass, Japan) were treated with Compound (1) at the indicated concentration and the microtubule dynamics were monitored by time-lapse imaging using fluorescent microscope with 60-fold magnification oil- immersed objective lens (BZ-X710, KEYENCE, Japan). Higher magnification views of the boxed areas were shown in inlets. When treated with Compound (1) at 0.5 nM (IC50 value for antiproliferative activity in U20S-EB3-AG cells), the comet-like structures became hard to observe at around 60 minutes after the addition of the compound.

[2] = system: HCCl806 subcutaneous xenograft; test: Antitumor activity against HCC1806 subcutaneous xenograft as monotherapy; assay type: in vivo, nude mice; conditions: 0.18 mg/kg i.v., Q7Dx2
Experimental: A human breast cancer cell line HCCl806, which had been cultured in an RPMI-1640 medium containing 10% FBS, and penicillin and streptomycin, was adjusted to a concentration of 1×10^8 cells/mL with PBS to prepare a cell suspension, and the suspension was mixed with Matrigel™ (BD Bioscience, #366237) in a ratio of 1:1 to prepare a cell suspension in a concentration of 5×10^7 cell/mL. The cell suspension was inoculated in a volume of 100 μL into a subcutaneous part of a right flank of nude mice, 5 weeks of ages (CAnN.Cg-Foxnlnu/CrlCrlj, female, Charles River Laboratories Japan, Inc.). Twelve days after cell inoculation, the shortest diameter and the longest diameter of a tumor in each mouse were measured by using an electronic digital caliper (Digimatic™ caliper, Mitutoyo Corporation), so as to calculate the volume of the tumor in accordance with the following calculation formulae: […]
On the basis of the volumes of tumors obtained on the first day of administration, the mice were grouped such that averages of the tumor volumes were substantially equal among the groups. The experiment was conducted on groups each consisting of 6 mice. Test compound was dissolved in saline and intravenously administered at 0.18 mg/kg once a week for 2 weeks (Q7Dx2 schedule).

[3] = system: α-SMA-positive CAFs in FaDu tumor; test: Effect on α-SMA-positive CAFs in the FaDu subcutaneous model (FIG. 14); assay type: in vivo, nude mice
Experimental: A human squamous cell carcinoma of the head and neck (SCCHN) cell line FaDu, which had been cultured in an RPMI-1640 medium containing 10% FBS, and penicillin-streptomycin (culture medium), was adjusted to a concentration of 5×10^7 cells/mL with culture medium to prepare a cell suspension. The cell suspension was inoculated in a volume of 100 μL into a subcutaneous part of a right flank of nude mice, 6 weeks of ages (CAnN.Cg-Foxnlnu/CrlCrlj, female, Charles River Laboratories Japan, Inc.). Ten days after cell inoculation, the mice were grouped such that averages of the tumor volumes were substantially equal among the groups. The experiment was conducted on groups each consisting of 5 mice. Each test compound was dissolved in DMSO and a solution was stored in the freezer before use. Immediately before the administration, the stock solution was diluted with saline. The test compound in saline was intravenously administered at 20 μg/kg, 60 μg/kg, or 180 μg/kg. […] The area of α-SMA-positive region in the whole tumor was quantified by counting the α-SMA-positive objects using inform 2 software (PerkinElmer Inc.) Area of the tumor region was measured by assessing the hematoxylin-staining area using inform 2 software (PerkinElmer Inc.). […] A suppression rate of the α-SMA- positive area of the test compound-dosing group was calculated with the below formula: […]

U2OS-EB3-AG cells = test: Antiproliferative activity in U2OS-EB3-AG cells; assay type: cell-based
[4] = system: human uterine sarcoma cell line MES-SA xenograft; test: MES-SA soft tissue sarcoma xenograft as monotherapy (FIG. 17); assay type: in vivo, nude mice; conditions: 180 μg/kg i.v. Day 1 and Day 8
Experimental: A human uterine sarcoma cell line MES-SA, which had been cultured in an RPMI-1640 containing 10% FBS, and penicillin-streptomycin, was adjusted to a concentration of 2×10^8 cells/mL with Hanks' Balanced Salt Solution to prepare a cell suspension, and the suspension was mixed with Geltrex® (Thermo Fisher Scientific Inc., #A1413202) in a ratio of 1:1 to prepare a cell suspension in a concentration of 1×10^8 cells/mL. The cell suspension was inoculated in a volume of 100 μL into a subcutaneous part of a right flank of nude mice, 6 weeks of ages (CAnN.Cg-Foxnlnu/CrlCrlj, female, Charles River Laboratories Japan Inc.). Six days after cell inoculation (Day 1), the shortest diameter and the longest diameter of a tumor in each mouse were measured by using an electronic digital caliper (Digimatic™ caliper, Mitutoyo Corporation), so as to calculate the volume of the tumor in accordance with the following calculation formulae: […]
On the basis of the volumes of tumors obtained on Day 1, the mice were grouped such that averages of the tumor volumes were substantially equal among the groups. The experiment was conducted on groups each consisting of 6 mice. The test compound was dissolved in DMSO and a solution was stored in the freezer before use. Immediately before the administration, the stock solution was diluted with saline. […]

## C=C1C[C@@H]2CC[C@@]34C[C@H]5O[C@H]6[C@@H](O3)[C@H]3O[C@H](CC[C@@H]3O[C@H]6C5O4)CC(=O)O[C@@H]3[C@@H](C)[C@@H]4O[C@@H]5C[C@]6(C[C@@H]7O[C@]8(C[C@H](C)[C@@H]9O[C@H](CN)[C@H](O)C[C@@H]9O8)C[C@H](C)[C@@H]7O6)O[C@@H]5C[C@@H]4O[C@H]3C[C@H]3O[C@@H](CC[C@@H]1O2)C[C@@H](C)C3=C (stereo in doubt) [Compound (1)]
[1]
  effect on microtubule dynamics (EB3-AG comet-like structures): suppress the MT dynamics
[2]
  Tumor Regression (%): 90%
[3]; single i.v. dose of 180 μg/kg, Day 6
  α-SMA positive area: significantly reduced the α-SMA positive area
[3]; single i.v. dose of 60 and 180 μg/kg, Day 3
  α-SMA positive area: significantly reduced the α-SMA positive area
U2OS-EB3-AG cells
  IC50: 0.5 nM
[4]
  antitumor activity: tumor growth delay
